This note sets out measurements from paper PMC8480776, “Selenium Derivatives as Promising Therapy for Chagas Disease: In Vitro and In Vivo Studies” (ACS Infectious Diseases, 2021).

A word on the IC50: it is the concentration that inhibits the measured activity by half.

Series [1] has as its system T. cruzi epimastigotes, Tulahuen strain. As to the kind of experiment: Screening against extracellular epimastigotes, Tulahuen strain. Type of series: cell-based, Trypanosoma cruzi. The settings on record: for IC50: Trypanosoma cruzi, TULAHUEN, 48 h + 24 h resazurin, read-out: Activity IC50, epimastigote form, Tulahuen strain; for Selectivity index (SI), epimastigotes, Tulahuen strain: IC50 Vero cells/IC50 epimastigotes. In general terms: The colour change of resazurin is a common sign of viable cells or microbes.

The subject of another series is Vero cells. As to the kind of experiment: Cytotoxicity test on Vero cells. The settings on record: Chlorocebus sabaeus, 48 h + 24 h resazurin, read-out: Toxicity IC50 Vero cell. The class given is cell-based.
Series [2] concerns T. cruzi amastigotes, Arequipa strain. Put plainly: Screening against intracellular amastigotes, Arequipa strain. The class given is cell-based, Trypanosoma cruzi. The note with it: for IC50: Trypanosoma cruzi, amastigotes in Vero cells, 72 h, read-out: activity IC50, Arequipa strain, am. forms; for selectivity index (SI), Arequipa strain, am. forms: IC50 Vero cells/IC50 amastigotes.

Series [3] relates to T. cruzi amastigotes, SN3 strain. As to the kind of experiment: Screening against intracellular amastigotes, SN3 strain. The class given is cell-based, Trypanosoma cruzi. The note with it: for IC50: Trypanosoma cruzi, amastigotes in Vero cells, 72 h, read-out: activity IC50, SN3 strain, am. forms.
Series [4] concerns T. cruzi amastigotes, Tulahuen strain. As to the kind of experiment: Screening against intracellular amastigotes, Tulahuen strain. Type of series: cell-based, Trypanosoma cruzi. The settings on record: Trypanosoma cruzi, TULAHUEN; amastigotes in Vero cells, 72 h; read-out: activity IC50, Tulahuen strain, am. forms.
Series [5] has as its system T. cruzi trypomastigotes, Arequipa strain. Put plainly: Screening against bloodstream trypomastigotes, Arequipa strain. Type of series: cell-based, Trypanosoma cruzi. The note with it: for IC50: Trypanosoma cruzi, bloodstream trypomastigotes, 24 h + 4 h resazurin, read-out: activity IC50, Arequipa strain, trypom. forms; for selectivity index (SI), Arequipa strain, trypom. forms: IC50 Vero cells/IC50 trypomastigotes.

Series [6] deals with T. cruzi trypomastigotes, Tulahuen strain. Put plainly: Screening against bloodstream trypomastigotes, Tulahuen strain. The note with it: Trypanosoma cruzi, TULAHUEN; bloodstream trypomastigotes, 24 h + 4 h resazurin; read-out: activity IC50, Tulahuen strain, trypom. forms. Type of series: cell-based, Trypanosoma cruzi.
For series [7], the system named is Vero cells infected with T. cruzi Arequipa strain. Put plainly: Infection rate in Vero cells (infected cells), Arequipa strain. The note with it: Trypanosoma cruzi, 72 h of treatment. The class given is cell-based.
The next series relates to T. cruzi Arequipa strain. Put plainly: In vivo trypanocidal activity on BALB/c mice (acute and chronic Chagas disease). Also on record: species or system Trypanosoma cruzi. As for the experimental part: (§1) Female BALB/c mice aged 10–12 weeks and with a size of 20–24 g were divided into five groups (n = 3 per group): 0, negative control group (uninfected and untreated mice); I, positive control group (infected and untreated mice); II, BZN group (infected mice treated with BZN); III, 26 group (infected mice treated with 26); and IV, 28 group (infected mice treated with 28).
Mice were infected by intraperitoneal injection of 5 × 10^5 BTs of T. cruzi Arequipa strain per mouse in 200 μL PBS.[42] Subsequently, the treatment was intraperitoneally administered (∼200 μL) once daily for 5 consecutive days.
(§2) The tested selenocompounds and BZN were prepared at 2 mg·mL^–1 in an aqueous suspension vehicle containing 5% (v/v) DMSO and 0.5% (w/v) hydroxypropyl methylcellulose, as previously reported.[52] Compounds (20 mg·kg^–1 per day) were administered for 5 consecutive days (total dosages of 100 mg·kg^–1), and vehicle only was administered in the negative and positive control groups. Treatments began when the infection was confirmed (9 dpi) for acute-phase-treated mice, and when it was established that the animals moved into the chronic phase (100 dpi, for chronic-phase-treated mice; Scheme 1).
[…]. Parasitemia was expressed as parasites·mL^–1.
Immunosuppression was performed by intraperitoneal injection of three doses of 200 mg·kg^–1 of ISOPAC CP at 3–4 day intervals (Scheme 1), as previously reported.[53] Mice were closely monitored for side effects or for secondary infections due to immunosuppression. Within 7 days after the last CP injection, parasitemia reactivation was determined by counting BTs according the procedure described for parasitemia in the acute phase.[42]
On 145 dpi, the mice were euthanized using CO2, followed by exsanguination via cardiac puncture, and blood was collected. […]. In addition, spleens were weighed to assess splenomegaly.[42]
DNA extraction of the post-mortem organs/tissues was performed using Wizard Genomic DNA Purification Kit,[41] and the extracted DNA was subjected to amplification by PCR based on the spliced leader (SL) intergenic region sequence of T. cruzi (for detailed description, see literature reported previously).[55] Finally, the PCR products were resolved by electrophoresis on a 2% agarose gel (containing GelRed nucleic gel stain) for 90 min at 90 V.
Circulating antibodies in serum against both antigens were quantitatively evaluated in triplicate by the ELISA test in 96-well plates using diluted serum samples (1:80 in PBS), as previously described.[41]

The format of series [8] is in vivo, BALB/c mice. The note with it: variation vs control. The protocol: as §1, §2
Serum samples obtained from blood in several days post-infection (Scheme 1) were sent to the Biochemical Service (University of Granada) to measure a series of biochemical parameters with the commercial Cromakit using a clinical chemistry analyzer (BS-200, Shenzhen Mindray Biomedical Electronics Co., LTD), as previously described.[41]

For series [9], the system named is epimastigotes of T. cruzi Arequipa strain. As to the kind of experiment: Flow cytometry analysis of nucleic acid levels (acridine orange). The settings on record: IC25 concentrations, 72 h. Type of series: cell-based, Trypanosoma cruzi. (In flow cytometry, cells or beads pass a laser one at a time.)
Series [10] relates to T. cruzi epimastigotes, Arequipa strain. As to the kind of experiment: Screening against extracellular epimastigotes, Arequipa strain. The class given is cell-based, Trypanosoma cruzi. The settings on record: for Selectivity index (SI), epimastigotes, Arequipa strain: IC50 Vero cells/IC50 epimastigotes; for IC50: Trypanosoma cruzi, 48 h + 24 h resazurin, read-out: Activity IC50, epimastigote form, Arequipa strain.

The subject of series [11] is T. cruzi epimastigotes, SN3 strain. As to the kind of experiment: Screening against extracellular epimastigotes, SN3 strain. The settings on record: for IC50: Trypanosoma cruzi, 48 h + 24 h resazurin, read-out: Activity IC50, epimastigote form, SN3 strain; for Selectivity index (SI), epimastigotes, SN3 strain: IC50 Vero cells/IC50 epimastigotes. The class given is cell-based, Trypanosoma cruzi.

The test system of series [12] is T. cruzi trypomastigotes, SN3 strain. Put plainly: Screening against bloodstream trypomastigotes, SN3 strain. Type of series: cell-based, Trypanosoma cruzi.
Where [13] appears, read: treatment in acute phase, 15th dpi (2 days after treatment).
Where [14] appears, read: treatment in acute phase, necropsy day.
Where [15] appears, read: treatment in chronic phase, 106th dpi (2 days after treatment).
Setting [16] is: treatment in chronic phase, necropsy day.

Read-outs that look alike come from different tables or passages of the source. Some results are limits rather than exact numbers.

As for `O=C(Cn1ccnc1[N+](=O)[O-])NCc1ccccc1` [BZN, benznidazole, reference compound], the IC50 in series [1] worked out at 19.7 ± 1.7 µM; with Vero cells it was 80.4 ± 7.1 µM; in series [2], 8.3 ± 0.7 µM; in [3] it was 16.6 ± 1.4 µM; in series [4], 10 ± 0.8 µM; in series [5], 12.4 ± 1.1 µM. The values for the IC50 in series [6] and in series [7] were 15.1 ± 1.3 µM and 15.1 µM, respectively. Also, the “parasite-free organs/tissues by PCR, acute phase treatment” value with T. cruzi Arequipa strain (20 mg·kg–1 per day i.p. 5 days from 9 dpi, necropsy 145 dpi) is recorded as 28.6%. In addition, the “anti-T. cruzi IgG levels (ELISA), chronic phase treatment” value with T. cruzi Arequipa strain (20 mg·kg–1 per day i.p. 5 days from 100 dpi) is on record as “similar”. Further, the “parasite-free organs/tissues by PCR, chronic phase treatment” value with T. cruzi Arequipa strain (20 mg·kg–1 per day i.p. 5 days from 100 dpi, necropsy 145 dpi) is given as 42.9%. The “ALP (liver marker)” value is given as “= (=, variation ≤ 10%)” in series [8] (setting [13]); “= (=, variation ≤ 10%)” in series [8] (setting [14]); “++++ (++++/----, ˃ 40% increase/decrease over the range)” in series [8] (setting [15]); “= (=, variation ≤ 10%)” in series [8] (setting [16]). Besides, the “ALT/GPT (liver marker)” value in series [8] (setting [13]) was “++ (++/--, 20-30% increase/decrease over the range)”; in [8] (setting [14]), “= (=, variation ≤ 10%)”; in series [8] (setting [15]) it was “++ (++/--, 20-30% increase/decrease over the range)”; in series [8] (setting [16]), “++ (++/--, 20-30% increase/decrease over the range)”. Besides, the “AST/GOT (liver marker)” value in [8] (setting [13]) is “++++ (++++/----, ˃ 40% increase/decrease over the range)”; in series [8] (setting [14]), “+ (+/-, 10-20% increase/decrease over the range)”; in series [8] (setting [15]) it was “+ (+/-, 10-20% increase/decrease over the range)”; in [8] (setting [16]), “+ (+/-, 10-20% increase/decrease over the range)”. For the same compound, the “CK-MB (heart marker)” value in [8] (setting [13]) is “= (=, variation ≤ 10%)”; in series [8] (setting [14]), “- (+/-, 10-20% increase/decrease over the range)”; in series [8] (setting [15]), “-- (++/--, 20-30% increase/decrease over the range)”; in series [8] (setting [16]), “-- (++/--, 20-30% increase/decrease over the range)”. Besides, the “LDH (heart marker)” value is on record as “= (=, variation ≤ 10%)” in series [8] (setting [13]); “= (=, variation ≤ 10%)” in series [8] (setting [14]); “-- (++/--, 20-30% increase/decrease over the range)” in series [8] (setting [15]); “-- (++/--, 20-30% increase/decrease over the range)” in series [8] (setting [16]). The “Total bilirubin (liver marker)” value in [8] (setting [13]) was “++++ (++++/----, ˃ 40% increase/decrease over the range)”; in [8] (setting [14]), “++ (++/--, 20-30% increase/decrease over the range)”; in series [8] (setting [15]), “+ (+/-, 10-20% increase/decrease over the range)”; in [8] (setting [16]), “++ (++/--, 20-30% increase/decrease over the range)”. Further, the “Urea (kidney marker)” value in series [8] (setting [13]) was “-- (++/--, 20-30% increase/decrease over the range)”; in [8] (setting [14]), “-- (++/--, 20-30% increase/decrease over the range)”; in [8] (setting [15]) it was “- (+/-, 10-20% increase/decrease over the range)”; in [8] (setting [16]) it was “= (=, variation ≤ 10%)”. Besides, the “Uric acid (kidney marker)” value was “---- (++++/----, ˃ 40% increase/decrease over the range)” in series [8] (setting [13]); “- (+/-, 10-20% increase/decrease over the range)” in series [8] (setting [14]); “- (+/-, 10-20% increase/decrease over the range)” in [8] (setting [15]); “- (+/-, 10-20% increase/decrease over the range)” in series [8] (setting [16]). Besides, in [9], the “inhibition of nucleic acid levels” value is “up to 22%”.
As to `N#C[Se]c1ccc(NC(=O)c2ccc([N+](=O)[O-])cc2)cc1` [Compound 25], the “Selectivity index (SI), epimastigotes, Arequipa strain” value in series [10] was 20. For the same compound, the half-inhibitory concentration (IC50) in series [10] was 26.3 ± 2.1 µM; in [11], more than 50 µM; in series [1], 25.3 ± 4.1 µM; in series [2], 49.3 ± 4.1 µM; in [4], more than 50 µM; in series [5], 35.8 ± 5.8 µM. Further, in series [6], the half-inhibitory concentration (IC50) came to 42.2 ± 3.9 µM. Further, in series [1], the “Selectivity index (SI), epimastigotes, Tulahuen strain” value (“Selectivity index … Tulahuen strain” below) came to 20. Moreover, the CC50 with Vero cells was determined as 516 ± 42.2 µM. In series [2], the “selectivity index (SI), Arequipa strain, am. forms” value was found to be 10. For the same compound, in [5], the “selectivity index (SI), Arequipa strain, trypom. forms” value came to 14.
Take `N#C[Se]c1ccc(NC(=O)c2cccs2)cc1` [Compound 29]: in [10], the “Selectivity index (SI), epimastigotes, Arequipa strain” value was 11 and the half-maximal inhibitory concentration (IC50) is 5.4 ± 0.8 µM. Besides, in series [11], the “Selectivity index (SI), epimastigotes, SN3 strain” value was 7 and the IC50 was determined as 8.9 ± 1.1 µM. Besides, in series [1], the “Selectivity index … Tulahuen strain” value is on record as 9 and the 50% inhibitory concentration (IC50) came to 6.6 ± 0.4 µM. Moreover, in the series with Vero cells, the CC50 turned out to be 60.9 ± 8.7 µM. Also, in series [2], the “selectivity index (SI), Arequipa strain, am. forms” value amounted to 4 and the IC50 was 15.4 ± 2 µM. Also, in [5], the “selectivity index (SI), Arequipa strain, trypom. forms” value came to 5 and the IC50 turned out to be 12.7 ± 1.2 µM.
Regarding `N#C[Se]c1ccc(NC(=O)c2cccc3ccccc23)cc1` [Compound 33], the “Selectivity index (SI), epimastigotes, Arequipa strain” value in [10] worked out at 6. In addition, the IC50 was determined as 9.4 ± 1.2 µM in series [10]; 4.8 ± 0.6 µM in [11]; 10.8 ± 1.2 µM in series [1]; 16.9 ± 1.4 µM in series [3]; 14.1 ± 1.1 µM in series [12] (Trypanosoma cruzi, bloodstream trypomastigotes, 24 h + 4 h resazurin, read-out: activity IC50, SN3 strain, trypom. forms). For the same compound, in [11], the “Selectivity index (SI), epimastigotes, SN3 strain” value is on record as 11. For the same compound, the “Selectivity index … Tulahuen strain” value in [1] is on record as 5. For the same compound, the CC50 in the series with Vero cells was determined as 52.7 ± 4.9 µM. The “selectivity index (SI), SN3 strain, am. forms” value in series [3] (IC50 Vero cells/IC50 amastigotes) was 3. Further, in [12] (IC50 Vero cells/IC50 trypomastigotes), the “selectivity index (SI), SN3 strain, trypom. forms” value stood at 4.
